# Measured values from patent US7189747B2, “Method of treating noninflammatory cartilage damage” (Warner-Lambert Company, priority 2000, dated 2007).
# Counter-ions that a name gives are not always drawn.
# How the values were obtained:
# [1] = system: Monosodium Iodoacetate-Induced Osteoarthritis in Rat; assay: MIA Rat: hind-paw weight distribution; assay type: in vivo; conditions: for % Inhibition (of cartilage damage, hind-paw weight distribution): 14 days, Day 14; for preventing or treating cartilage damage (conclusion from Table 5): MIA Rat, doses and routes of Table 5
# Source text: One end result of the induction of osteoarthritis in this model, as determined by histologic analysis, is the development of an osteoarthritic condition within the affected joint, as characterized by the loss of Toluidine blue staining and formation of osteophytes. Associated with the histologic changes is a concentration-dependent degradation of joint cartilage, as evidenced by affects on hind-paw weight distribution of the limb containing the affected joint, the presence of increased amounts of proteoglycan or hydroxyproline in the joint upon biochemical analysis, or histopathological analysis of the osteoarthritic lesions.
# In the MIA Rat model on Day 0, the hind-paw weight differential between the right arthritic joint and the left healthy joint of male Wistar rats (150 g) were determined with an incapacitance tester, model 2KG (Linton Instrumentation, Norfolk, United Kingdom). The incapacitance tester has a chamber on top with an outwardly sloping front wall that supports a rat's front limbs, and two weight sensing pads, one for each hind paw, that facilitates this determination. Then the rats were anesthetized with isofluorine, and the right, hind leg knee joint was injected with 1.0 mg of mono-iodoacetate (“MIA”) through the infrapatellar ligament. […] The rats were further administered either a GABA analog or vehicle (in the instant case, water) daily for 14 days. The GABA analog was typically administered at a dose of 30 mg of GABA analog per kilogram of rat per day (30 mg/kg/day), but may be administered at other doses such as, for example, 10 mg/kg/day, 60 mg/kg/day, or 100 mg/kg/day according to the requirements of the compound being studied. It is well within the level of ordinary skill in the pharmaceutical arts to determine a proper dosage of a GABA analog in this model. In the instant experiment, administration of the GABA analog was optionally by oral administration or intravenous administration via an osmotic pump. After 7 and 14 days, the hind-paw weight distribution was again determined. […] Percent inhibition of cartilage damage was calculated as the percent change in hind-paw weight distribution for treated animals versus control animals:
# [formula] wherein: ΔWC is the hind-paw weight differential between the healthy left limb and the arthritic limb of the control animal administered vehicle alone, as measured on Day 14; and • ΔWG is the hind-paw weight differential between the healthy left limb and the arthritic limb of the animal administered a GABA analog, as measured on Day 14.
# The results of the hind-paw weight distribution data are shown below in Table 5 in the column labelled “% Inhibition”.
# [2] = system: Monosodium Iodoacetate-Induced Osteoarthritis in Rat; assay: MIA Rat: free proteoglycan in knee joint; assay type: in vivo; conditions: for treatment of cartilage damage (conclusion from Table 6): MIA Rat, osmotic pump 30 mg/kg/day; for Proteoglycan loss (%) / Inhibition of Proteoglycan loss (%): intravenously by osmotic pump 30 mg/kg/day; for Proteoglycan loss (%): osteoarthritic right knee joint vs contralateral left knee joint, vehicle 18.10 (1b) and 31.90 (2b); for Inhibition of Proteoglycan loss (%): versus vehicle (water)
# Source text: The incapacitance tester has a chamber on top with an outwardly sloping front wall that supports a rat's front limbs, and two weight sensing pads, one for each hind paw, that facilitates this determination. […] The rats were further administered either a GABA analog or vehicle (in the instant case, water) daily for 14 days. […] It is well within the level of ordinary skill in the pharmaceutical arts to determine a proper dosage of a GABA analog in this model. In the instant experiment, administration of the GABA analog was optionally by oral administration or intravenous administration via an osmotic pump. After 7 and 14 days, the hind-paw weight distribution was again determined. […] Percent inhibition of cartilage damage was calculated as the percent change in hind-paw weight distribution for treated animals versus control animals: In order to measure biochemical or histopathological end points in the MIA Rat model, some of the animals in the above study were then sacrificed, and the amounts of free proteoglycan in both the osteoarthritic right knee joint and the contralateral left knee joint were determined by biochemical analysis. The amount of free proteoglycan in the contralateral left knee joint provides a baseline value for the amount of free proteoglycan in a healthy joint. The amount of proteoglycan in the osteoarthritic right knee joint in animals further administered a GABA analog, and the amount of proteoglycan in the osteoarthritic right knee joint in animals further administered vehicle alone, were independently compared to the amount of proteoglycan in the contralateral left knee joint. The amounts of proteoglycan lost in the osteoarthritic right knee joints were expressed as percent loss of proteoglycan compared to the contralateral left knee joint control. The results are shown below in Table 6 in the column labelled, “Proteoglycan loss (%)”. Also shown in Table 6, in the column labelled “Inhibition of Proteoglycan loss (%)”, is the percent inhibition of proteoglycan loss, which was calculated as {[(proteoglycan loss from joint (%) with vehicle)−(proteoglycan loss from joint with GABA analog)]÷(proteoglycan loss from joint (%) with vehicle)}×100.
# [3] = system: Experimental Osteoarthritis in Rabbit; assay: EOA in Rabbit: histological grading of synovial membrane; assay type: in vivo; conditions: 150 mg/kg/po/day, 8 weeks after surgery, mean ± SEM
# Protocol: (§1) Normal rabbits were anaesthetized and anteromedial incisions of the right knees performed. The anterior cruciate ligaments were visualized and sectioned. The wounds were closed and the animals were housed in individual cages, exercised, and fed ad libitum. Rabbits were given either vehicle (water), gabapentin, or 3-(1-aminomethyl-cyclohexylmethyl)-4h-[1,2,4]oxadiazol-5-one hydrochloride (10 rabbits per group). Each group was dosed three times per day with the gabapentin group receiving 100-mg/kg/dose and the 3-(1-aminomethyl-cyclohexylmethyl)-4h-[1,2,4]oxadiazol-5-one hydrochloride group receiving 50-mg/kg/dose. The rabbits were euthanized 8 weeks after surgery and the proximal end of the tibia and the distal end of the femur were removed from each animal.
# Representative specimens of synovial membrane from the medial and lateral knee compartments were dissected from underlying tissues. The specimens were fixed, embedded, and sectioned (5 um) as above, and stained with hematoxylin-eosin. For each compartment, two synovial membrane specimens were examined for scoring purposes and the highest score from each compartment was retained. The average was calculated and considered as a unit for the whole knee. The severity of synovitis was graded on a scale of 0 to 10 by two independent observers, adding the scores of 3 histologic criteria: synovial lining cell hyperplasia (scale 0–2); villous hyperplasia (scale 0–3); and degree of cellular infiltration by mononuclear and polymorphonuclear cells (scale 0–5): 0 indicates normal structure.
# (§2) Mean values and SEM was calculated and statistical analysis was done using the Mann-Whitney U-test.
# [4] = system: Experimental Osteoarthritis in Rabbit; assay: EOA in Rabbit: macroscopic grading of cartilage lesions; assay type: in vivo
# Protocol: as §1
# The cartilage changes on the femoral condyles and tibial plateaus were graded separately under a dissecting microscope (Stereozoom, Bausch & Lomb, Rochester, N.Y.). The depth of erosion was graded on a scale of 0 to 4 as follows: grade 0=normal surface; Grade 1=minimal fibrillation or a slight yellowish discoloration of the surface; Grade 2=erosion extending into superficial or middle layers only; Grade 3=erosion extending into deep layers; Grade 4=erosion extending to subchondral bone. The surface area changes was measured and expressed in mm^2. Representative specimens will also be used for histologic grading (see below).
# as §2
# [5] = system: Experimental Osteoarthritis in Rabbit; assay: EOA in Rabbit: histologic grading of cartilage lesions (Mankin scale); assay type: in vivo; conditions: for Cells (0–3) / Safranin-O Staining (0–4) / Structure (0–6) / Total (0–13): 150 mg/kg/po/day, 8 weeks after surgery, mean ± SEM
# Protocol: as §1
# Histologic evaluation was performed on sagittal sections of cartilage from the lesional areas of the femoral condyle and tibial plateau. Serial sections (5 um) were prepared and stained with safranin-O. The severity of OA lesions was graded on a scale of 0–14 by two independent observers using the histologic-histochemical scale of Mankin et al. This scale evaluates the severity of OA lesions based on the loss of safranin-O staining (scale 0–4), cellular changes (scale 0–3), invasion of tidemark by blood vessels (scale 0–1) and structural changes (scale 0–6). On this latter scale, 0 indicates normal cartilage structure and 6 indicates erosion of the cartilage down to the subchondral bone. The scoring system was based on the most severe histologic changes in the multiple sections.
# as §2
# [6] = daily dose 30 mg/kg, osmotic pump
# [7] = 50 mg/kg/dose three times per day, 8 weeks, Table 1
# [8] = 30 mg/kg oral, twice daily dosing of the indicated dose
structure (smiles),measurement,setting,value
CS(=O)(=O)NCCC1(CN)CCCCC1.Cl,melting point,,196 to 199 °C
NCC1(Cc2nnn[nH]2)CCCCCC1 [C-[1-(1H-tetrazol-5-ylmethyl)-cycloheptyl]-methylamine],"% Inhibition (of cartilage damage, hind-paw weight distribution)",[1]; [6],−33 ± 17%
"Cl.NCC(c1noc(=O)[nH]1)C1CCCC1 (stereo not drawn) [3-(2-amino-1-cyclopentyl-ethyl)-4H-[1,2,4]oxadiazol-5-one hydrochloride]",preventing or treating cartilage damage (conclusion from Table 5),[1],effective
same,"% Inhibition (of cartilage damage, hind-paw weight distribution)",[1]; [6],104%
"Cl.NCC1(CC(=O)O)CC2CCC2C1 (stereo not drawn) [(1α,3α,5α)(3-Aminomethyl-bicyclo[3.2.0]hept-3-yl)-acetic acid hydrochloride]",treatment of cartilage damage (conclusion from Table 6),[2],effective
same,Proteoglycan loss (%),[2],16.60%
same,Inhibition of Proteoglycan loss (%),[2],48%
same,"% Inhibition (of cartilage damage, hind-paw weight distribution)",[1]; [6],−3 ± 34%
"Cl.NCC1(Cc2noc(=O)[nH]2)CCCCC1 [3-(1-Aminomethyl-cyclohexylmethyl)-4H-[1,2,4]oxadiazol-5-one; hydrochloride]",Cellular Infiltration (0–5 Scale),[3],0.35 ± 0.2
same,Synovial Lining (0–2 Scale),[3],0.85 ± 0.1
same,Villous Hyperplasia (0–3 Scale),[3]; p < 0.001,1.15 ± 0.1
same,Total (0–10),[3]; p < 0.002,2.35 ± 0.3
same,damage score for both the femoral condyles and the tibial plateaus (in words),[4]; [7],reduced
same,lesion size on the plateaus (in words),[4]; [7],reduced
same,Femoral Condyles Size,"[4]; 150 mg/kg/po/day (50 mg/kg/dose three times per day), 8 weeks after surgery, mean ± SEM",6.93 ± 3.1 mm^2
same,Tibial Plateaus Size,"[4]; 150 mg/kg/po/day (50 mg/kg/dose three times per day), 8 weeks after surgery, mean ± SEM, p < 0.002",1.95 ± 0.8 mm^2
same,Tibial Plateaus Grade (0–4),"[4]; 150 mg/kg/po/day (50 mg/kg/dose three times per day), 8 weeks after surgery, mean ± SEM, p < 0.02",0.55 ± 0.2
same,Femoral Condyles Grade (0–4),"[4]; 150 mg/kg/po/day (50 mg/kg/dose three times per day), 8 weeks after surgery, mean ± SEM, p < 0.04",0.67 ± 0.2
same,treatment of cartilage damage (conclusion from the EOA in Rabbit study),"[4]; gabapentin 100 mg/kg/dose, test compound 50 mg/kg/dose, three times per day, 8 weeks",effective
same,treatment of cartilage damage (conclusion from Table 6),[2],effective
same,Proteoglycan loss (%),[2],6.70%
same,Inhibition of Proteoglycan loss (%),[2],63%
same,"% Inhibition (of cartilage damage, hind-paw weight distribution)",[1]; [8],47 ± 20%
same,preventing or treating cartilage damage (conclusion from Table 5),[1],effective
same,"% Inhibition (of cartilage damage, hind-paw weight distribution)",[1]; [6],46 ± 10%
same,histologic damage (in words),"[5]; 50 mg/kg/dose three times per day, 8 weeks, text on Table 2 and 3",reduced histologic damage
same,Cells (0–3),[5]; Femoral Condyles,1.60 ± 0.2
same,Safranin-O Staining (0–4),[5]; Femoral Condyles,1.25 ± 0.3
same,Structure (0–6),"[5]; Femoral Condyles, p < 0.01",1.35 ± 0.3
same,Total (0–13),"[5]; Femoral Condyles, p < 0.04",4.20 ± 0.6
same,Cells (0–3),[5]; Tibial Plateaus,0.60 ± 0.2
same,Safranin-O Staining (0–4),[5]; Tibial Plateaus,0.18 ± 0.1
same,Structure (0–6),[5]; Tibial Plateaus,0.90 ± 0.2
same,Total (0–13),"[5]; Tibial Plateaus, p > 0.02",1.77 ± 0.4
"Cl.NCC1(Cc2noc(=O)[nH]2)CCCCCC1 [3-(1-aminomethyl-cycloheptylmethyl)-4H-[1,2,4]oxadiazol-5-one hydrochloride]",preventing or treating cartilage damage (conclusion from Table 5),[1],effective
same,"% Inhibition (of cartilage damage, hind-paw weight distribution)",[1]; [6],62 ± 8%
CC(C)CC(CN)Cc1noc(=S)[nH]1.Cl (stereo not drawn),melting point,,183 to 185 °C
Cl.NCC1(Cc2noc(=S)[nH]2)CCCCC1,melting point,,210 to 212 °C
"CC(C)CC(CN)Cc1noc(=O)[nH]1.Cl (stereo not drawn) [3-(2-Aminomethyl-4-methyl-pentyl)-4H-[1,2,4]oxadiazole-5-one; HCl]",preventing or treating cartilage damage (conclusion from Table 5),[1],effective
same,"% Inhibition (of cartilage damage, hind-paw weight distribution)",[1]; [6],35 ± 8%
"CC(C)C[C@H](CN)CC(=O)O [Pregabalin, (S)-3-(aminomethyl)-5-methylhexanoic acid, reference compound]","% Inhibition (of cartilage damage, hind-paw weight distribution)",[1]; [8],−3 ± 12%
CCCC(C(C)C)C(CN)CC(=O)O (stereo not drawn) (as salt: HCl),melting point,,160 to 170 °C
